Assay [1] has as its target human orexin 2 receptor (Homo sapiens (Human), UniProt O43614). Kind of assay: Human orexin 2 receptor radioligand binding. To be noted: read-out: hOX2 Ki. The method, boiled down: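 Ki derived from one-site competition IC50 using predetermined Kd of [3H]-EMPA, triplicate points, 2-20 runs averaged. Binding done on homogenized HEK293 cells stably expressing human orexin 2 receptor, DMSO ≤0.1%, with 10 μM almorexant defining nonspecific binding; filtered, washed, scintillation counted.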

For assay [2], the target named is human orexin 1 receptor (Homo sapiens, UniProt O43613). The experiment in a line: Human orexin 1 receptor radioligand binding. The conditions noted are these: human orexin 1 receptor; averages of 2-20 runs; read-out: hOX1 Ki. The method, boiled down: (§1)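 Ki values derive from one-site competition IC50s corrected with the radioligand's predetermined Kd, triplicates per run, averaged over 2-20 runs. Cell homogenates (rat or human OX1R) compete against [^3H]-thiazolyl-oxadiazolyl-pyrrolidine methanone in PBS; 10 μM almorexant sets nonspecific binding; scintillation counting after washing.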

For assay [3], the target named is rat orexin 1 receptor (Rattus norvegicus, UniProt P56718). The experiment in a line: Rat orexin 1 receptor radioligand binding. To be noted: rat orexin 1 receptor; averages of 2-20 runs; read-out: rOX1 Ki. The procedure, abridged: as §1
Setting [4] is: human orexin 2 receptor, averages of 2-20 runs.

Read-outs that look alike come from different tables or passages of the source. Some results are limits rather than exact numbers.

human orexin 2 receptor, sequence (O43614 whole entry): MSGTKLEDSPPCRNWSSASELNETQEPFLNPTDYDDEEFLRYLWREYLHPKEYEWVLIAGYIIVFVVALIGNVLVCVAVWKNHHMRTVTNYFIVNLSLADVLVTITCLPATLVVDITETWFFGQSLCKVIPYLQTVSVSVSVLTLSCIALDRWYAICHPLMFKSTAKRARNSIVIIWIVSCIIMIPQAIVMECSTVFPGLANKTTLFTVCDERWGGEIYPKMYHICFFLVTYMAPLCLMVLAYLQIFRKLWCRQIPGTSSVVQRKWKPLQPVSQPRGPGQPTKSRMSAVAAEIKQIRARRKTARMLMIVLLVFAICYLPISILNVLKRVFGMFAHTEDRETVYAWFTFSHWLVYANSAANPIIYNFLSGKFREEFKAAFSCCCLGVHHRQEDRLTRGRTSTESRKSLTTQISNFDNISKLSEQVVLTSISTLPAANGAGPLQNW

As to `O=C(c1cccc(F)c1-n1nccn1)N1C[C@H]2C[C@@H](Nc3ccc(C(F)(F)F)cn3)[C@@H]1C2` [Example 144, (3-fluoro-2-(2H-1,2,3-triazol-2-yl)phenyl)((1S,4S,6R)-6-((5-(trifluoromethyl)pyridin-2-yl)amino)-2-azabicyclo[2.2.1]heptan-2-yl)methanone], the Ki in assay [1] (setting [4]) came out at 133 nM; in assay [2], 3 nM; in assay [3], 3 nM.

Regarding `O=C(c1ccccc1-n1nccn1)N1C[C@H]2C[C@@H](Oc3ccc(F)cn3)[C@@H]1C2` [Example 118, (2-(2H-1,2,3-triazol-2-yl)phenyl)((1S,4R,6R)-6-((5-fluoropyridin-2-yl)oxy)-2-azabicyclo[2.2.1]heptan-2-yl)methanone], the values for the inhibition constant Ki in assay [1] (setting [4]), in assay [2] and in assay [3] were 1600 nM, 105 nM and 133 nM, respectively.

`O=C(c1ccc(F)cc1-c1ncccn1)N1CC2CCC1C(Nc1cnc(C(F)(F)F)cn1)C2` (racemic) [Example 258, (R/S)-(4-fluoro-2-(pyrimidin-2-yl)phenyl)(6-((5-(trifluoromethyl)pyrazin-2-yl)amino)-2-azabicyclo[2.2.2]octan-2-yl)methanone]: the Ki in assay [1] (setting [4]) was 2600 nM; in assay [2], 17 nM; in assay [3], 26 nM.

For `O=C(c1ccccc1-n1nccn1)N1C[C@H]2C[C@@H](Oc3ccc(C(F)F)cn3)[C@@H]1C2` [Example 121, (2-(2H-1,2,3-triazol-2-yl)phenyl)((1S,4R,6R)-6-((5-(difluoromethyl)pyridin-2-yl)oxy)-2-azabicyclo[2.2.1]heptan-2-yl)methanone], the Ki in assay [1] (setting [4]) came out at 50 nM; in assay [2] it was 11 nM; in assay [3] it was 10 nM.

Take `O=C(c1ccc(F)cc1-c1ncccn1)N1C[C@H]2C[C@@H](Nc3ncc(Cl)cn3)[C@@H]1C2` [Example 237, ((1S,4S,6R)-6-((5-chloropyrimidin-2-yl)amino)-2-azabicyclo[2.2.1]heptan-2-yl)(4-fluoro-2-(pyrimidin-2-yl)phenyl)methanone]: the Ki was determined as 1900 nM in assay [1] (setting [4]), 13 nM in assay [2] and 32 nM in assay [3].

`O=C(c1cc(F)ccc1-c1ncccn1)N1C[C@@H]2CC[C@H]1[C@H](Nc1cnc(C(F)(F)F)cn1)C2` [Example 278, (5-fluoro-2-(pyrimidin-2-yl)phenyl)((1S,4R,6R)-6-((5-(trifluoromethyl)pyrazin-2-yl)amino)-2-azabicyclo[2.2.2]octan-2-yl)methanone]: the Ki in assay [1] (setting [4]) amounted to 243 nM; in assay [2] it was 7 nM; in assay [3] it was 14 nM.

As to `O=C(c1ccccc1-c1ncc(F)cn1)N1C[C@H]2C[C@@H](Oc3ccc(Cl)cn3)[C@@H]1C2` [Example 116, ((1S,4R,6R)-6-((5-chloropyridin-2-yl)oxy)-2-azabicyclo[2.2.1]heptan-2-yl)(2-(5-fluoropyrimidin-2-yl)phenyl)methanone], the values for the Ki in assay [1] (setting [4]), in assay [2] and in assay [3] were 939 nM, 12 nM and 11 nM, respectively.

For the compound `O=C(c1cccc(F)c1-n1nccn1)N1C[C@H]2C[C@@H](Nc3ncc(Cl)cn3)[C@@H]1C2` [Example 234, ((1S,4S,6R)-6-((5-chloropyrimidin-2-yl)amino)-2-azabicyclo[2.2.1]heptan-2-yl)(3-fluoro-2-(2H-1,2,3-triazol-2-yl)phenyl)methanone], the Ki was found to be 827 nM in assay [1] (setting [4]), 12 nM in assay [2] and 17 nM in assay [3].

As for “((1S,4S,6R)-6-((5-chloropyrimidin-2-yl)amino)-2-azabicyclo[2.2.1]heptan-2-yl)(5-fluoro-2-(pyrimidin-2-yl)phenyl)methanone [Example 238]”, the values for the inhibitory constant (Ki) in assay [1], in assay [2] and in assay [3] were 991 nM, 8 nM and 20 nM, respectively.

As for `O=C(c1ccccc1-c1ncccn1)N1C[C@H]2C[C@@H](Oc3cnc(C(F)(F)F)cn3)[C@@H]1C2` [Example 130, (2-(pyrimidin-2-yl)phenyl)((1S,4R,6R)-6-((5-(trifluoromethyl)pyrazin-2-yl)oxy)-2-azabicyclo[2.2.1]heptan-2-yl)methanone], the values for the Ki in assay [1] (setting [4]), in assay [2] and in assay [3] were 3500 nM, 27 nM and 29 nM, respectively.

Consider `O=C(c1cc(F)ccc1-n1nccn1)N1CC2CC(Nc3cnc(C(F)(F)F)cn3)C1C2` [Example 194, ((5-fluoro-2-(2H-1,2,3-triazol-2-yl)phenyl)((1S,4S,6R)-6-((5-(trifluoromethyl)pyrazin-2-yl)amino)-2-azabicyclo[2.2.1]heptan-2-yl)methanone], for which the Ki in assay [1] (setting [4]) stood at 241 nM; in assay [2], 8 nM; in assay [3], 8 nM.

For `Cc1cnc(-c2ncccn2)c(C(=O)N2C[C@H]3C[C@@H](Oc4ccc(C(F)(F)F)cn4)[C@@H]2C3)c1` [Example 290, (5-methyl-2-(pyrimidin-2-yl)pyridin-3-yl)((1S,4R,6R)-6-((5-(trifluoromethyl)pyridin-2-yl)oxy)-2-azabicyclo[2.2.1]heptan-2-yl)methanone], the Ki in assay [1] (setting [4]) was more than 10000 nM; in assay [2] it was 188 nM; in assay [3], 97 nM.

For the compound `O=C(c1cccc(F)c1-n1nccn1)N1C[C@H]2C[C@@H](Nc3nc4ccccc4o3)[C@@H]1C2` [Example 182, ((1S,4S,6R)-6-(benzo[d]oxazol-2-ylamino)-2-azabicyclo[2.2.1]heptan-2-yl)(3-fluoro-2-(2H-1,2,3-triazol-2-yl)phenyl)methanone], the results for the inhibitory constant (Ki) in assay [1] (setting [4]), in assay [2] and in assay [3] were 218 nM, 4 nM and 3 nM, respectively.

Regarding `Cc1cnc(C(=O)N2C[C@@H]3CC[C@H]2[C@H](Oc2ccc(C(F)(F)F)cn2)C3)c(-c2ncccn2)c1` [Example 264, (5-methyl-3-(pyrimidin-2-yl)pyridin-2-yl)((1S,4R,6R)-6-((5-(trifluoromethyl)pyridin-2-yl)oxy)-2-azabicyclo[2.2.2]octan-2-yl)methanone], the inhibition constant Ki in assay [1] (setting [4]) is more than 10000 nM; in assay [2], 16 nM; in assay [3] it was 10 nM.

Turning to `O=C(c1ncccc1-c1ncccn1)N1C[C@H]2C[C@@H](Oc3ccc(C(F)(F)F)cn3)[C@@H]1C2` [Example 296], the Ki in assay [1] (setting [4]) is 474 nM; in assay [2], 14 nM; in assay [3], 8 nM.

Take `O=C(c1ccccc1-c1ncc(F)cn1)N1C[C@H]2C[C@@H](Nc3ncc(C(F)(F)F)cn3)[C@@H]1C2` [Example 231, (2-(5-fluoropyrimidin-2-yl)phenyl)((1S,4S,6R)-6-((5-(trifluoromethyl)pyrimidin-2-yl)amino)-2-azabicyclo[2.2.1]heptan-2-yl)methanone]: the figures for the inhibition constant (Ki) in assay [1] (setting [4]), in assay [2] and in assay [3] were 1300 nM, 12 nM and 9 nM, respectively.

Regarding `O=C(c1cc(F)ccc1-n1nccn1)N1C[C@H]2C[C@@H](Nc3ncc(C(F)(F)F)cn3)[C@@H]1C2` [Example 225, (5-fluoro-2-(2H-1,2,3-triazol-2-yl)phenyl)((1S,4S,6R)-6-((5-(trifluoromethyl)pyrimidin-2-yl)amino)-2-azabicyclo[2.2.1]heptan-2-yl)methanone], the inhibition constant Ki in assay [1] (setting [4]) is 800 nM; in assay [2], 16 nM; in assay [3] it was 20 nM.

Regarding `Cc1ccc(-c2ncccn2)c(C(=O)N2C[C@H]3C[C@@H](Nc4ccc(C(F)(F)F)cn4)[C@@H]2C3)n1` [Example 150, (6-methyl-3-(pyrimidin-2-yl)pyridin-2-yl)((1S,4S,6R)-6-((5-(trifluoromethyl)pyridin-2-yl)amino)-2-azabicyclo[2.2.1]heptan-2-yl)methanone], the Ki in assay [1] (setting [4]) was found to be 88 nM; in assay [2], 9 nM; in assay [3] it was 13 nM.

`O=C(c1cccc(F)c1-c1ncccn1)N1C[C@H]2C[C@@H](Nc3ncc(Cl)cn3)[C@@H]1C2` [Example 236, ((1S,4S,6R)-6-((5-chloropyrimidin-2-yl)amino)-2-azabicyclo[2.2.1]heptan-2-yl)(3-fluoro-2-(pyrimidin-2-yl)phenyl)methanone]: the values for the inhibitory constant (Ki) in assay [1] (setting [4]), in assay [2] and in assay [3] were 1020 nM, 9 nM and 10 nM, respectively.

Regarding `Cc1cnc(N[C@@H]2C[C@H]3C[C@@H]2N(C(=O)c2cc(F)ccc2-n2nccn2)C3)cn1` [Example 218, (5-fluoro-2-(2H-1,2,3-triazol-2-yl)phenyl)((1S,4S,6R)-6-((5-methylpyrazin-2-yl)amino)-2-azabicyclo[2.2.1]heptan-2-yl)methanone], the Ki was 490 nM in assay [1] (setting [4]), 49 nM in assay [2] and 31 nM in assay [3].

`O=C(c1cccc(F)c1-c1ncccn1)N1C[C@H]2C[C@@H](Oc3ccc(C(F)(F)F)nn3)[C@@H]1C2` [Example 141, (3-fluoro-2-(pyrimidin-2-yl)phenyl)((1S,4R,6R)-6-((6-(trifluoromethyl)pyridazin-3-yl)oxy)-2-azabicyclo[2.2.1]heptan-2-yl)methanone]: the Ki in assay [1] (setting [4]) is more than 10000 nM; in assay [2] it was 348 nM; in assay [3], 208 nM.

With `O=C(c1cccc(F)c1-n1nccn1)N1C[C@H]2C[C@@H](Nc3cnc(Cl)cn3)[C@@H]1C2` [Example 212, ((1S,4S,6R)-6-((5-chloropyrazin-2-yl)amino)-2-azabicyclo[2.2.1]heptan-2-yl)(3-fluoro-2-(2H-1,2,3-triazol-2-yl)phenyl)methanone], the inhibitory constant (Ki) is 607 nM in assay [1] (setting [4]), 9 nM in assay [2] and 14 nM in assay [3].

As for `Cc1cccc(C(=O)N2CC3CCC2C(Nc2cnc(C(F)(F)F)cn2)C3)c1-n1nccn1` (racemic) [Example 256, (R/S)-(3-methyl-2-(2H-1,2,3-triazol-2-yl)phenyl)(6-((5-(trifluoromethyl)pyrazin-2-yl)amino)-2-azabicyclo[2.2.2]octan-2-yl)methanone], the Ki was determined as 348 nM in assay [1] (setting [4]), 10 nM in assay [2] and 20 nM in assay [3].

As a reminder, the Ki is the equilibrium dissociation constant of an inhibitor or competing ligand from its target.

(Values after patent US9611277B2 (Janssen Pharmaceutica NV, priority 2013, dated 2017).)
